This experiment has as its system mixed inoculum of bacteria. Kind of experiment: MIC and synergy (K) in nutrient broth, microtiter plates. Type of experiment: cell-based. As for the experimental part:
Stock solutions of each product were prepared in sterile distilled water. Synergism was measured by the method first described by F. C. Kull, P. C. Eisman, H. D. Sylwestrowicz and R. L. Mayer in Applied Microbiology, 9, 538-41 ([…]). This manner of determining synergism has been widely used and is industrially acceptable. It is believed that the specified method is sufficient in explaining the process. However for a further description, reference can be made to U.S. Pat. No. 3,231,509 and its file history, where this type of data was considered acceptable.
• 1. Incubator capable of maintaining a variable temperature range (25-45 C) • 2. Samples of each biocide or test compound to be examined • 3. Microtiter plates—96 well with lid, sterile. • 4. 8-12 channel micropipetting device capable of pipetting 0-250 ul volumes • 5. Micropipette tips capable of holding up to 250 ul volumes • 6. Sterile microbiological culture broth. Trypticase Soy Broth (TSB) or Nutrient Broth (NB) is recommended for bacteria and Sabouraud Maltose Broth (SMB) or Sabouraud Dextrose Broth (SDB) is recommended for yeasts and molds. In the case of this particular study the microbiological culture medium was Nutrient Broth at pH 7.0, 8.0 and 9.0. • 7. Pure cultures of microorganisms of choice grown on appropriate agar medium • 8. Sterile distilled water • 9. 100 mL volumetric flasks (one for each biocide to be tested) • 10. Sterile 10 mL tubes of Phosphate buffer (Butterfield's buffer pH 7.2+/−0.2). Contains purified water, monobasic potassium phosphate and sodium hydroxide for pH adjustment. • 11. Sterile cotton swabs • 12. 0.5 MacFarland Turbidity Standard
The day before testing, perform a streak plate of each organism to be tested on an appropriate agar medium (Trypticase Soy Agar). Organisms tested in this study were: Wild strain bacteria isolated from previously contaminated industrial systems and which were identified as: Pseudomonas sp., Escherchia coli , Enterobacter sp., Alcaligenes sp. and Alcaligenes faecalis. On the day of the test, use a sterile cotton swab to harvest some of the growth. Place swab into a tube containing 10 mL sterile phosphate buffer. Compare and adjust the turbidity of the organisms in the tube to 1×10^8 cfu/mL using a 0.5 MacFarland Turbidity Standard. Dilute the 10 mL tube into 90 mL of sterile 2× nutrient broth at pH 7.0, 8.0 and 9.0.
1. Design the layout of the microtiter plates based on the number of organisms to test and the number of biocides and desired concentrations to test. A separate microtiter plate is required for testing each biocide alone, in addition to the combination microtiter plate. 2. Prepare a working stock solution of each biocide to be tested. For the combination microtiter plate, the working stock solution of Biocide A will be 8× the concentration desired in the first well of the combination microtiter plate. The working stock solution of Biocide B will be 4× the concentration desired in the first well of the combination microtiter plate. For the alone microtiter plates, the working stock solutions of Biocide A and Biocide B will both be 4× the concentration desired in the first well of the single biocide microtiter plates.
Dodecylguanidine hydrochloride: (For combination plates) A solution of this product which is 35% active, was made as follows: […]=8000 ppm active=8000/0.35=22,857 ppm, 2.28 g into 100 mL sterile diH2O. Levels to test are: 1000 ppm, 500 ppm, 250 ppm, 125 ppm, 62.5 ppm, 31.2 ppm, 15.6 ppm, 7.8 ppm, 3.9 ppm, 1.95 ppm
Ortho-PhenylPhenol: (For combination plates) Make a solution of this product which is 99% active, 4×125=500 ppm active=500/0.99=505 ppm, 0.05 g into 100 mL MeOH and sterile diH2O. Level to test is 125 ppm.
3. Place 50 ul of sterile distilled water in all of the rows in columns 1 through 10, and 100 ul of sterile distilled water in all of the rows in columns 11 and 12 of the 96 well combination microtiter plate. […]

From US20100160445A1, “Synergistic Mixtures of OPP and DGH” (priority 2002, published 2010) come the findings set out here.

SMILES strings stand for the structures. Structures can show the parent of a compound that is named as a salt. Where two headings read alike, the source gives them in different places.

As a reminder, the MIC is the lowest concentration found to suppress growth. With `CCCCCCCCCCCCNC(=N)N` [DGH, Dodecylguanidine Hydrochloride], the MIC (pH 7, read-out: MIC, biocide alone) is 62.5 µg/mL; the MIC (pH 8, read-out: MIC, biocide alone) was determined as 15.6 µg/mL; the minimum inhibitory concentration (MIC) (pH 9, read-out: MIC, biocide alone) was found to be 15.6 µg/mL. The “Synergy Index” value is, setting by setting: (pH 7.0, 62.5 ppm DGH alone (100:0)) 1.00; (pH 8.0, 15.6 ppm DGH alone (100:0)) 1.00; (pH 9.0, 15.6 ppm DGH alone (100:0)) 1.00.
